Test results from patent publication US20250170236A1, “A NOVEL CATIONIC ADJUVANT COMPOSITION” (STATENS SERUM INSTITUT, priority 2022, published 2025).

Test system: antigen-specific total IgG, IgG1 and IgG2c (H56 antigen)
Parameters: species or system CB6F1 mice
Settings: mouse, in vivo

CpG ODN 2006 [CpG2006]
increased antibody responses (effect seen with DDA/MMG/CpG2006): not observed
